Source: US7390508B2, “Use of xenon with hypothermia for treating neonatal asphyxia” (Protexeon Limited, priority 2003, dated 2008)
Values joined by “and” are separate entries in the source; they are usually repeats but may differ in a detail not shown here. Equal values may be shown once.

Legend:
[1] = xenon dissolved or dispersed in lipid emulsion; assay type: physicochemical; settings: 20° C. and normal pressure
Description: It has been established that appreciable amounts of xenon maybe added to a lipid emulsion. Even by the simplest means, at 20° C. and normal pressure, xenon can be dissolved or dispersed in concentrations of 0.2 to 10 ml or more per ml of emulsion. The concentration of dissolved gas is dependent on a number of factors, including temperature, pressure and the concentration of lipid.

[2] = test system: Seven day old postnatal Sprague-Dawley rats; test: Neonatal asphyxia model, xenon during or 2 h after hypoxia (Example 1); assay type: in vivo, rat
Description: Seven day old postnatal Sprague-Dawley rats underwent right common carotid artery ligation under surgical anaesthesia (1%-1.5% isoflurane in pure oxygen). After ligation, the animals were returned to their mothers and placed in a specially designed area with constant of room temperature (23° C.) and humidity (48%). One hour after surgery, neonatal rats were placed in specially designed chamber with 8% oxygen combined with 0, 20, 40, 60 or 70% Xenon (with nitrogen making up the balance) for 90 min at 37° C. (temperature kept by water bath running outside chambers). At post-experimental day 7, rats (14 day old) were killed and their brains removed. The ratio of right hemisphere weight against left (R/L ratio) was calculated. Rat pups in some groups were allowed to live up to 30 days of postnatal age, at which time their neuromotor function and co-ordination were assessed with established protocols (Neuromotor testing and Rotarod testing).
The concentration-dependence of xenon neuroprotection (ratio right hemisphere weight/left against xenon concentration) is shown in FIG. 4. […] Control animals were subjected to carotid ligation but no hypoxia was given. Results are mean±SEM (n=5−8). * P<0.01 vs 8% O2.
At postnatal day 7 the right carotid artery was ligated and rat pups were exposed to a hypoxic environment (8% oxygen+70% xe and balance with nitrogen) for 90 min. Thirty days after the insult, rats were evaluated for neuromotor function (A) using a panel that included assays of prehensile traction, strength, and balance beam performance (graded on a 0-9 scale) and (B) balance on a Rotarod, a standard test of balance and neuromotor function. The data point from an individual rat is the sum of three tests. The horizontal bars indicate the median for each group.
The neuroprotective effect (ratio of right hemisphere/left) observed with N2 and xenon respectively is shown in FIG. 6, when xenon is administered 2 hours post HI insult. […]

[3] = test system: neuronal cultures; test: oxygen-glucose deprivation (OGD)-induced lactate dehydrogenase (LDH) release in neuronal cultures; assay type: cell-based; settings: for ED50 for xenon, OGD-induced LDH release: 75 minutes OGD, 6 hours of recovery, xenon concentration % atm, mean +/- SEM
Description: The effect of mild hypothermia on the neuroprotective effect of xenon (LDH release against xenon concentration, % atm) is shown in FIG. 7. […] Cooling by 4 degrees greatly enhances the potency of xenon in blocking LDH release. […] (red), or at 33° C. (blue). […] Neuronal injury is expressed as a percentage of the maximal LDH release after 75 minutes of OGD and 6 hours of recovery in the absence of either xenon or hypothermia. Points represent mean values, with error bars indicating standard errors.
From the slope of such a plot the enthalpy change of the process can be calculated, its size being a measure of the temperature dependence. The data in red show the effect of temperature on LDH release in the absence of xenon. The reduction of release as the temperature is reduced is expected but modest. […] Hypothermia therefore appears to greatly enhance the neuroprotective effects of xenon.

[4] = test system: p7 Sprague-Dawley rat pups; test: 7-day-old rat model of focal HI, treatment 4 h post-insult, cresyl violet histology of apoptotic, necrotic and viable cells (Example 2); assay type: in vivo
From the text: p7 Sprague-Dawley rat pups (weighing between 10 and 14 g) from Harlan, U.K. were subjected to a previously described model of HI injury (Levine, 1960; Rice et al, 1981). In brief, rat pups were anaesthetised with 2% isoflurane before undergoing permanent unilateral ligation of the right common carotid artery, using a midline neck incision and 5.0 silk suture. Once surgery was complete, pups recovered from the anaesthesia and were then returned to the dam until the time of experimentation.
1 hr after surgery, pups were exposed to hypoxia by placing them into purpose-built, airtight chambers that were partially submerged in a 37° C. water bath (FIG. 9). […] Hypoxia was induced by a continuous flow of humidified 8% oxygen, balanced with nitrogen, and this mixture was monitored every 15 minutes by a Datex Ohmeda (Bradford, U.K.). (All gases were supplied by BOC.)
Following HI, pups were returned to the dam for 4 hrs to recover, after which time they were subjected to 90 minutes of one of the experimental interventions below. […] No significant difference existed between the two time periods and thus 4 h post-insult was chosen as the time to apply the intervention, as it was thought to be the most clinically relevant.
Pups were returned to their mothers until sacrifice at 16, 24 and 48 h following treatment (Northington et al, 2001) (FIG. 10).
The same experimental paradigm was followed for treatment with xenon, but instead of hypothermia, the water bath was maintained at 37° C. and the gas mixture was changed to 25% oxygen and 75% xenon for 90 minutes. Gas was delivered into a purpose-built, closed system to minimise xenon leakage (FIG. 9). Once again, the pups were returned to their mothers until sacrifice.
In the combination paradigm, the rats underwent both hypothermia and xenon concurrently for 90 minutes. Again, the pups were placed in airtight chambers, but on this occasion, their temperatures were maintained at 35° C. and the gas mixture consisted of 25% oxygen, only 20% xenon and balanced nitrogen. This temperature and xenon concentration was shown in preliminary experiments, to confer no neuroprotective benefit to the developing brain when used independently. Thus, by using these values, any neuroprotective benefit at all is indicative of synergy between the two agents. Following treatment, pups were returned to their mothers until sacrifice.
Neuronal injury was assessed by histological analysis of paraffin brain slices stained with cresyl violet. Cresyl violet is a basic stain that binds to acidic components of neuronal cytoplasm such as RNA-rich ribosomes, and also the nuclei and nucleoli of nerve cells.
Each experimental group consisted of three time groups (16, 24, 48 h), and each time group contained three animals, (thus there were nine animals in total for each experimental group). Three slides per animal were chosen from the area of the brain that was −3.6 mm from the bregma (FIG. 11). Slides were then sorted into time groups and the examiner was blinded to the intervention.
Two areas from the ipsilateral side of each brain were analysed using a BX60 light microscope (Olympus, Southall, U.K.)—one in the cortex and one in the gyrus of the hippocampus (FIG. 11). A 40× objective lens with a grid was used to count the total number of cells that appeared in the grid. Cells were scored as either viable, apoptotic, or necrotic based on their morphological appearance, and the percentage of each cell type was noted down for each of the brain areas. An Axiocam digital camera (Zeiss, Göttingen, Germany) was used along with the microscope to take photomicrographs of the brain slices.
The criteria for assigning cells to each category was as follows (FIG. 12): • 1. Cells undergoing either type of cell death (apoptosis or necrosis) took up the cresyl violet stain more intensely than viable cells, which were regularly shaped with pale cytoplasm, and a clearly visible, darker nucleus. • 2. […]

[5] = 20% xenon alone, 37° C., cortex, 16 h, mean±SD (n=3)
[6] = 75% xenon, 37° C., 90 min, cortex, 16 h, mean±SD (n=3)
[7] = 75% xenon, 37° C., 90 min, gyrus, 16 h, mean±SD (n=3)
[8] = combination 20% xenon + 35° C. hypothermia, cortex, 16 h, mean±SD (n=3)

[Xe] [xenon]
concentration of xenon dissolved or dispersed in lipid emulsion [1]: 0.2 to 10 ml per ml of emulsion | concentration-dependence of xenon neuroprotection (ratio right hemisphere weight/left) ([2]; 0, 20, 40, 60 or 70% xenon with 8% oxygen for 90 min at 37° C., brains at 14 days): Neuroprotection is evident even at sub-anaesthetic concentrations | neuroprotective effect (ratio of right hemisphere/left) ([2]; 70% Xe+30% O2 for 90 min, given 2 hours after the end of the hypoxic period): effective in providing neuroprotection | gross anatomical appearance of brain slices ([2]; 70% xenon breathed during the 90 min hypoxic period): look close to normal | temperature dependence of LDH release (van't Hoff plot) ([3]; 12.5% xenon present): very large and unexpected | ED50 for xenon, OGD-induced LDH release ([3]; 33° C.): 11.5+/−2.0% | ED50 for xenon, OGD-induced LDH release ([3]; 37° C.): 35.9+/−2.15% | neuroprotection ([4]; 20% xenon alone, 37° C.): no neuroprotective effect | percentage of apoptosis [4, 5]: 36%±5.7% and 35.8%±5.7% | percentage of viability [4, 5]: 51%±7.8% | apoptosis (percentage of total cell number) [4, 6]: 8.5%±1.6% | viable cell count (percentage of total cell number) [4, 6]: 80.6%±0.2% | apoptosis (percentage of total cell number) [4, 7]: 13.9%±2.4% | viable cell count (percentage of total cell number) [4, 7]: 77.1%±3.3% | anti-necrosis ([4]; 75% xenon, 16 and 24 h groups): not anti-necrotic | anti-apoptosis compared to positive control animals ([4]; 75% xenon, 24 and 48 h groups, cortex and gyrus): statistically significant anti-apoptosis | percentage of viable cells vs. positive controls ([4]; 75% xenon, 24 h, cortex and gyrus): significant increase in the percentage of viable cells | necrosis (percentage of total cell number) ([4]; 75% xenon, cortex, 48 h, mean±SD (n=3)): 10.7%±0.4% | anti-necrosis ([4]; 75% xenon, gyrus, 48 h): not however anti-necrotic | neuroprotection ([4]; combination 20% xenon + 35° C. hypothermia, both areas of the brain, 16, 24 and 48 h): profound synergistic neuroprotection | apoptosis (percentage of total cell number) [4, 8]: 7.2%±2% | viable cells (percentage of total cell number) [4, 8]: 82.3%±4.9% | type of protection ([4]; combination 20% xenon + 35° C. hypothermia, gyrus, 24 h): anti-necrotic as well as anti-apoptotic protection
